Measurements from patent publication US10533015B1, “Opioid receptor antagonist prodrugs” (Nirsum Laboratories, Inc., priority 2019, dated 2020).
Like-named read-outs stand apart in the source and are kept apart here.

How the values were obtained:
[1] = Plasma stability assay, rat plasma; assay type: in vitro ADME; conditions: 10 μM, 37° C.
Procedure: Plasma stability determination of the test compounds in rat, dog, cynomolgus monkey and human plasma is performed using HPLC-MS. For rat, incubations are carried out in 96-well polypropylene plates in 5 aliquots of 70 μL each (one for each time point). […] Five time points are analyzed (0, 15, 120, 480 and 1440 min). For dog, monkey and human, test compounds (2 μM, final solvent concentration 1%) were also incubated at 37° C. and analyzed at five time points (0, 10, 30, 60 and 120 min). All incubations are performed in duplicates. The samples are analyzed by HPLC-MS. The percentage of parent compound remaining after incubation in plasma is determined.

[2] = Polymorph screening of solid state drug substances; conditions: for Dry method and appearance: after stirring 50 °C 72 hours, dried solid; for XRPD results (Dried): dried solid after 50 °C 72 hours; for Visual observation 50° C. / Visual observation RT: target conc. 100 mg/ml
[3] = heating temp. 40 °C, obs. temp. 40 °C
[4] = heating temp. 60 °C, obs. temp. 25 °C

For `CCCCCCCCCCCCOC(=O)Oc1ccc2c3c1O[C@H]1C(=O)CC[C@@]4(O)C(C2)N(CC2CC2)CC[C@]314` [Compound 11, (4aS,7aR,12bS)-3-(cyclopropylmethyl)-4a-hydroxy-7-oxo-2,3,4,4a,5,6,7,7a-octahydro-1H-4,12-methanobenzofuro[3,2-e]isoquinolin-9-yl dodecyl carbonate], the “% remaining at time point” value ([1]; 0 min) was 100%, the “% remaining at time point” value ([1]; 15 min) was 0.7% and the “% remaining at time point” value ([1]; 120 min) was 0.3%. The “% remaining at time point” value ([1]; 480 min) was 0.2%, the “% remaining at time point” value ([1]; 1440 min) was 0% and the “Approximate Solubility (mg/mL) in Excipient: Cottonseed oil” value (shortened to “Approximate Solubility … Cottonseed oil”) [3] was greater than 407 mg/mL. The “Approximate Solubility … Cottonseed oil” value [4] was less than 51 mg/mL, the “Approximate Solubility (mg/mL) in Excipient: Ethanol” value [3] was greater than 218 mg/mL and the “Approximate Solubility (mg/mL) in Excipient: Sesame oil” value (“Approximate Solubility … Sesame oil” below) [3] was greater than 407 mg/mL. For the same molecule, the “Approximate Solubility … Sesame oil” value [4] was less than 50 mg/mL, the “Dry method and appearance” value ([2]; Acetone) was “Evaporation/white powder” and the “XRPD results (Dried)” value ([2]; Acetone) was “Pattern A”. For the same molecule, the “Visual observation 50° C.” value ([2]; Acetone) was “Clear”, the “Visual observation RT” value ([2]; Acetone) was “Slurry” and the “Dry method and appearance” value ([2]; EtOAc) was “Evaporation/white powder”. The “XRPD results (Dried)” value ([2]; EtOAc) was “Pattern A”, the “Visual observation 50° C.” value ([2]; EtOAc) was “Clear” and the “Visual observation RT” value ([2]; EtOAc) was “Slurry”. The “Dry method and appearance” value ([2]; Heptane) was “Evaporation/white powder”, the “XRPD results (Dried)” value ([2]; Heptane) was “Pattern B” and the “Visual observation 50° C.” value ([2]; Heptane) was “Clear”. For the same molecule, the “Visual observation RT” value ([2]; Heptane) was “Clear”, the “Dry method and appearance” value ([2]; Isopropanol) was “Evaporation/white powder” and the “XRPD results (Dried)” value ([2]; Isopropanol) was “Pattern A”. The “Visual observation 50° C.” value ([2]; Isopropanol) was “Clear”, the “Visual observation RT” value ([2]; Isopropanol) was “Slurry” and the “Dry method and appearance” value ([2]; MTBE) was “Evaporation/white powder”. For the same molecule, the “XRPD results (Dried)” value ([2]; MTBE) was “Pattern A”, the “Visual observation 50° C.” value ([2]; MTBE) was “Clear” and the “Visual observation RT” value ([2]; MTBE) was “Clear”.

For `C=C1CC[C@@]2(O)C3Cc4ccc(OCOC(=O)OCCCCCCCCCCCCCC)c5c4[C@@]2(CCN3CC2CC2)[C@H]1O5` [Compound 25, (((4aS,7aS,12bS)-3-(cyclopropylmethyl)-4a-hydroxy-7-methylene-2,3,4,4a,5,6,7,7a-octahydro-1H-4,12-methanobenzofuro[3,2-e]isoquinolin-9-yl)oxy)methyl tetradecyl carbonate], the “% remaining at time point” value ([1]; 0 min) was 100%, the “% remaining at time point” value ([1]; 15 min) was 82.6% and the “% remaining at time point” value ([1]; 120 min) was 69.3%. The “% remaining at time point” value ([1]; 480 min) was 62.2%, the “% remaining at time point” value ([1]; 1440 min) was 51.7% and the “Approximate Solubility … Cottonseed oil” value [4] was greater than 414 mg/mL. For the same molecule, the “Equilibrium solubility (mg/mL) Water” value [3] was less than 0.001 mg/mL.

In the case of `C=C1CC[C@@]2(O)C3Cc4ccc(OC(=O)OCCCCCCCCCCCCC)c5c4[C@@]2(CCN3CC2CC2)[C@H]1O5` [Compound 30, (4aS,7aS,12bS)-3-(cyclopropylmethyl)-4a-hydroxy-7-methylene-2,3,4,4a,5,6,7,7a-octahydro-1H-4,12-methanobenzofuro[3,2-e]isoquinolin-9-yl tridecyl carbonate], the “% remaining at time point” value ([1]; 0 min) is reported as 100%, the “% remaining at time point” value ([1]; 15 min) is reported as 65.7% and the “% remaining at time point” value ([1]; 120 min) is reported as 40.3%. For the same molecule, the “% remaining at time point” value ([1]; 480 min) was 30.5%, the “% remaining at time point” value ([1]; 1440 min) was 22.2% and the “Approximate Solubility … Cottonseed oil” value [4] was 252.5 to 404.06 mg/mL. For the same molecule, the “Approximate Solubility … Sesame oil” value [4] was 252.55 to 398.6 mg/mL and the “Equilibrium solubility (mg/mL) Water” value [3] was less than 0.001 mg/mL.

In the case of `C=C1CC[C@@]2(O)C3Cc4ccc(OC(=O)CCCCCCC/C=C\CCCCCCCC)c5c4[C@@]2(CCN3CC2CC2)[C@H]1O5` [Compound 36, (4aS,7aS,12bS)-3-(cyclopropylmethyl)-4a-hydroxy-7-methylene-2,3,4,4a,5,6,7,7a-octahydro-1H-4,12-methanobenzofuro[3,2-e]isoquinolin-9-yl oleate], the “% remaining at time point” value ([1]; 0 min) is reported as 100%, the “% remaining at time point” value ([1]; 15 min) is reported as 74.4% and the “% remaining at time point” value ([1]; 120 min) is reported as 66.3%. The “% remaining at time point” value ([1]; 480 min) was 39.8%, the “% remaining at time point” value ([1]; 1440 min) was 19.1% and the “Approximate Solubility (mg/mL) in Excipient: Castor oil” value (Castor oil, heating temp. 40 °C, obs. temp. 40 °C) was greater than 217 mg/mL. The “Approximate Solubility … Cottonseed oil” value [3] was greater than 418.7 mg/mL, the “Approximate Solubility … Cottonseed oil” value [4] was greater than 407 mg/mL and the “Approximate Solubility (mg/mL) in Excipient: Ethanol” value [3] was 20 to 30 mg/mL. The “Approximate Solubility … Sesame oil” value [3] was greater than 411.6 mg/mL and the “Approximate Solubility … Sesame oil” value [4] was greater than 408 mg/mL.

With `CCCCCCCCCCCCCCCCCCCC(=O)Oc1ccc2c3c1O[C@H]1C(=O)CC[C@@]4(O)C(C2)N(CC2CC2)CC[C@]314` [Compound 50, (4aS,7aR,12bS)-3-(cyclopropylmethyl)-4a-hydroxy-7-oxo-2,3,4,4a,5,6,7,7a-octahydro-1H-4,12-methanobenzofuro[3,2-e]isoquinolin-9-yl iconsanoate] the “% remaining at time point” value ([1]; 0 min) was 100%, the “% remaining at time point” value ([1]; 15 min) was 114.5% and the “% remaining at time point” value ([1]; 120 min) was 102.7%. For the same molecule, the “% remaining at time point” value ([1]; 480 min) was 83.3%, the “% remaining at time point” value ([1]; 1440 min) was 73.9% and the “Approximate Solubility … Cottonseed oil” value [4] was less than 51 mg/mL. For the same molecule, the “Approximate Solubility … Sesame oil” value [4] was less than 52 mg/mL and the “Equilibrium solubility (mg/mL) Water” value [3] was less than 0.001 mg/mL.

For `CCCCCCCCCCCCCCCCCCCCCC(=O)Oc1ccc2c3c1O[C@H]1C(=O)CC[C@@]4(O)C(C2)N(CC2CC2)CC[C@]314` [Compound 51, (4aS,7aR,12bS)-3-(cyclopropylmethyl)-4a-hydroxy-7-oxo-2,3,4,4a,5,6,7,7a-octahydro-1H-4,12-methanobenzofuro[3,2-e]isoquinolin-9-yl docosanoate], the “% remaining at time point” value ([1]; 0 min) was 100%, the “% remaining at time point” value ([1]; 15 min) was 107.4% and the “% remaining at time point” value ([1]; 120 min) was 105.3%. For the same molecule, the “% remaining at time point” value ([1]; 480 min) was 88.2%, the “% remaining at time point” value ([1]; 1440 min) was 92.7% and the “Approximate Solubility … Cottonseed oil” value [4] was less than 50 mg/mL. For the same molecule, the “Approximate Solubility … Sesame oil” value [4] was less than 46 mg/mL and the “Equilibrium solubility (mg/mL) Water” value [3] was less than 0.001 mg/mL.

In the case of `CCCCC/C=C\C/C=C\CCCCCCCC(=O)Oc1ccc2c3c1O[C@H]1C(=O)CC[C@@]4(O)C(C2)N(CC2CC2)CC[C@]314` [Compound 53, (4aS,7aR,12bS)-3-(cyclopropylmethyl)-4a-hydroxy-7-oxo-2,3,4,4a,5,6,7,7a-octahydro-1H-4,12-methanobenzofuro[3,2-e]isoquinolin-9-yl (9Z,12Z)-octadeca-9,12-di.enoate], the “% remaining at time point” value ([1]; 0 min) is reported as 100%, the “% remaining at time point” value ([1]; 15 min) is reported as 46.85% and the “% remaining at time point” value ([1]; 120 min) is reported as 19.6%. The “% remaining at time point” value ([1]; 480 min) was 7.3%, the “% remaining at time point” value ([1]; 1440 min) was 1.9% and the “Approximate Solubility … Cottonseed oil” value [4] was greater than 408.5 mg/mL. For the same molecule, the “Approximate Solubility … Sesame oil” value [4] was greater than 401.9 mg/mL and the “Approximate Solubility … Sesame oil” value (heating temp. 60 °C, obs. temp. 40 °C) was greater than 406.3 mg/mL.

For `CCCCCCCCCCCCCCCCCC(=O)Oc1ccc2c3c1O[C@H]1C(=O)CC[C@@]4(O)C(C2)N(CC2CC2)CC[C@]314` [Compound 54, (4aS,7aR,12bS)-3-(cyclopropylmethyl)-4a-hydroxy-7-oxo-2,3,4,4a,5,6,7,7a-octahydro-1H-4,12-methanobenzofuro[3,2-e]isoquinolin-9-yl stearate], the “% remaining at time point” value ([1]; 0 min) was 100%, the “% remaining at time point” value ([1]; 15 min) was 98.8% and the “% remaining at time point” value ([1]; 120 min) was 62.4%. The “% remaining at time point” value ([1]; 480 min) was 45.6%, the “% remaining at time point” value ([1]; 1440 min) was 19.4% and the “Approximate Solubility … Cottonseed oil” value [4] was less than 51 mg/mL. For the same molecule, the “Approximate Solubility … Sesame oil” value [4] was less than 50 mg/mL and the “Equilibrium solubility (mg/mL) Water” value [3] was less than 0.001 mg/mL.

In the case of `CCCCCCCCCCCCCC(=O)Oc1ccc2c3c1O[C@H]1C(=O)CC[C@@]4(O)C(C2)N(CC2CC2)CC[C@]314` [Compound 57, (4aS,7aR,12bS)-3-(cyclopropylmethyl)-4a-hydroxy-7-oxo-2,3,4,4a,5,6,7,7a-octahydro-1H-4,12-methanobenzofuro[3,2-e]isoquinolin-9-yl tetradecanoate], the “% remaining at time point” value ([1]; 0 min) is reported as 100%, the “% remaining at time point” value ([1]; 15 min) is reported as 10.5% and the “% remaining at time point” value ([1]; 120 min) is reported as 3.2%. For the same molecule, the “% remaining at time point” value ([1]; 480 min) was 1.2%, the “% remaining at time point” value ([1]; 1440 min) was 0% and the “Approximate Solubility … Cottonseed oil” value [4] was greater than 423.7 mg/mL. For the same molecule, the “Approximate Solubility … Sesame oil” value [4] was greater than 417.3 mg/mL and the “Equilibrium solubility (mg/mL) Water” value [3] was less than 0.001 mg/mL.

For `CCCCCCCCCCCCCCC(=O)Oc1ccc2c3c1O[C@H]1C(=O)CC[C@@]4(O)C(C2)N(CC2CC2)CC[C@]314` [Compound 58, (4aS,7aR,12bS)-3-(cyclopropylmethyl)-4a-hydroxy-7-oxo-2,3,4,4a,5,6,7,7a-octahydro-1H-4,12-methanobenzofuro[3,2-e]-isoquinolin-9-yl pentadecanoate], the “% remaining at time point” value ([1]; 0 min) was 100%, the “% remaining at time point” value ([1]; 15 min) was 37% and the “% remaining at time point” value ([1]; 120 min) was 20%. The “% remaining at time point” value ([1]; 480 min) was 2.9%, the “% remaining at time point” value ([1]; 1440 min) was 1.8% and the “Approximate Solubility … Cottonseed oil” value [4] was 101.8 to 203.6 mg/mL. For the same molecule, the “Approximate Solubility … Sesame oil” value [4] was 99.4 to 198.8 mg/mL.
